According to patent publication US10907159B2, “Methods of treating cancer by inhibition of DNA repair proteins using antisense based therapies” (SARISSA INC., priority 2015, dated 2021):
“Also recorded” adds a separate entry of the source.

Experiments:
[1] = system: DU145 human prostate cancer cells; settings: BR1 pretreatment; FIG. 37
Experimental: Cells were treated for 4 hours with ASO, after which one volume of medium was added and cells were incubated for a further 20 hours. ASO-containing medium was removed and replaced with fresh medium. Cells were then incubated for 4 days and cell numbers assessed. Proliferation of BR1-treated cells was calculated as a percent of proliferation of non-targeting ASO-treated control cells. Initial cell density varied among cell lines.

[2] = system: HN-5a and HN-5a/carbo-15a head and neck squamous carcinoma cells; assay: Cisplatin sensitivity after ASO transfection (cell counting, colony forming); type: cell-based, human; settings: FIG. 51
Experimental: HN-5a cells are parental, cisplatin-sensitive human head and neck squamous carcinoma cells, and HN-5a/carbo-10a and HN-5a/carbo-15a cells are cisplatin-resistant lines derived from HN-5a cells (Ferguson et al., Drug Metab. Dispos. 27:1399-1405, 1999). Cells were exposed to cisplatin and effects on proliferation were assessed 72 h after drug treatment. HN-5a cells (b) and HN-5a/carbo-15a cells (c) were transfected with control (black circles) or BRCA2 (white circles) ASO, treated with varying concentrations of cisplatin and then counted 96 h post-transfection. HN-5a cells (d) and […] cells (e) were transfected with control or BRCA2 ASO, treated with different concentrations of cisplatin for 6 h, and then re-plated at a density of 500 cells per well to determine colony forming ability. *Different from cells treated with control ASO using a Student's t-test (p<0.05).

BRCA2 mRNA = assay: RT-qPCR of BRCA2 mRNA in A549 cells after OLIGO transfection; type: cell-based, human; settings: 20 nM OLIGO, 24 hours post-transfection; FIG. 16
Experimental: Briefly, A549 cells seeded at a density of 2.0×10^5 per flask were transfected with 20 nM of OLIGO specific for each target or control OLIGO using Lipofectamine 2000 as the transfection reagent. Twenty four hours post-transfection mRNA was extracted and reverse transcribed into cDNA. RT-qPCR was performed for target mRNA levels using TaqMan reagents according to established protocols.

CAPAN-1 cells = assay: Cell proliferation assay, ASO and/or drug (cell counting); type: cell-based, human; settings: CAPAN-1 with mutated, non-functional BRCA2; FIG. 52
Experimental: A: BRCA2-wild type SKOV-3 cells (black bars), […] MCF-7 cells (white bars), and BRCA2-mutated CAPAN-1 cells (grey bars) were treated simultaneously but separately with BRCA2 ASO (20 nM). Due to differing growth medium requirements and to avoid fluorescent label-induced changes in drug sensitivity, cells were not co-cultured. They were treated independently, at the same time with the same materials. Ninety-six hours post-transfection, cells were counted and proliferation determined (% of proliferation after control ASO treatment).
C: SKOV-3, MCF-7 and CAPAN-1 cells were treated with two different concentrations of olaparib for 96 hours. After drug treatment they were counted and proliferation was determined as a percent of that of vehicle-treated cells.
(§1) Four hours post-transfection, cells were seeded into 6 well dishes in appropriate experimental groups. Twenty-four hours post transfection, cells were treated with olaparib (Selleckchem) at three concentrations. Ninety-six hours post transfection, cells were collected and counted (Coulter Particle Counter). Proliferation was determined based on initial cell density and calculated as a percentage of ASO+vehicle treated cells.

A549b cells = assay: Proliferation of A549b cells after OLIGO/siRNA transfection (cell counting); type: cell-based, human
Experimental: Cultured cell lines were maintained in minimum essential medium a with nucleosides plus 10% fetal bovine serum and penicillin (50 units/mL)/streptomycin (50 mg/L) (growth medium). Cultures were incubated in a humidified atmosphere of 5% CO2 at 37° C. Cultured cell lines were maintained and cytotoxicity assays conducted as described previously (3). Rapidly proliferating cells were utilized for establishing cultures of experimental cells, which were allowed to plate overnight in 25-cm^2 flasks prior to manipulation. An established cell line of non-small-cell lung carcinoma (NSCLC), A549b, which was propagated by serial dilution from a single cell of an A549 parent cell line, was used for the establishment of antisense activity of oligonucleotides. This cell line proliferates with a mean generation time of approximately 20 hours, and is capable of forming tumours in immunodeficient mice with a take rate of greater than 90%. Therefore, this cell line is a good model system that can be used in both in vitro and in vivo experiments to test the activity of OLIGOs.
OLIGOs were introduced into cells with the use of Lipofectamine 2000 (LFA2K) (Invitrogen, Burlington, Ontario, Canada). OLIGOs were mixed with LFA2K at a ratio of 0.2 μg/ml per 10 nM OLIGO. The mixture was prepared at 11× the final concentration to which cells were exposed, so that 200 μL was added to 2 mL of medium in which cells were plated. As controls, cells were exposed to medium alone (no treatment), LFA2K alone at concentrations equivalent to those used in combination with OLIGOs (in some experiments only the maximum LFA2K concentration was used as a control), or OLIGO having no complementarity with any human mRNA. The OLIGO/LFA2K mixtures were then incubated at room temperature for 20 minutes, according to instructions supplied with the LFA2K, followed by addition of the OLIGOs to the cell medium. The OLIGO/LFA2K mix was then incubated (37° C.) on the cells for 4 hours, after which a second volume of medium was added. Cells were then incubated for 20 hours. Following this incubation, the OLIGO-containing medium was replaced with drug-free medium (i.e. medium without OLIGOs) and the cells were incubated for an additional 4 days. Following the 4-day incubation, the proliferation of the treated cells (fold-increase in cell number) was calculated as a percentage of that of control cells. Cell numbers were enumerated on an electronic particle counter (Beckman Coulter, Mississauga, ON). For the purpose of determining the anti-proliferative effect of antisense OLIGOs, the proliferation of cells treated with antisense OLIGOs was calculated as a percent of that of cells treated with an equivalent concentration of non-complementary control OLIGO (in this case OLIGO 32) mixed with an equivalent amount of LFA2K.
OLIGO-containing medium was removed and replaced with fresh medium. Cells were incubated for 4 days, at which time cell number was counted. Proliferation was calculated as a percent of non-targeting OLIGO-treated controls.
Cells were incubated for 4 days, at which time cell number was counted. Proliferation was calculated as a percent of controls.

[3] = system: HK-2 kidney proximal tubule epithelial cells; assay: Cell proliferation assay, ASO transfection then drug (cell counting); type: cell-based, human; settings: FIG. 52
Experimental: FIG. […] Proliferation was determined by cell counting 96 hours post-transfection (*p<0.05).
as §1, with “Twenty-four hours post transfection, cells were treated with olaparib (Selleckchem) at three concentrations.” left out

With “5′-guaucuCTTGACGTuccuua-3′ (GUAUCUCTTGACGTUCCUUA; gapmer, lower-case wings modified, type not given here) [BR1]” the “enhancement of veliparib” value [1] was “enhances veliparib”, the “effect on acquired cisplatin resistance” value [2] was “reverses acquired cisplatin resistance” and the “effect on BRCA2 mRNA level” value (BRCA2 mRNA) was “reduction in BRCA2 mRNA”. The “effect on antiproliferative activity of cisplatin” value (CAPAN-1 cells) was “no effect on the antiproliferative activity of cisplatin”, the “anti-proliferative effect as single agent” value (A549b cells; A549/A549b cells, 4 h transfection, counted after 4 d, vs non-targeting control OLIGO) was “inhibited proliferation on its own; also recorded: greater inhibition as a single agent; also recorded: inhibit proliferation of human non-small cell lung cancer A549 cells in a concentration-dependent manner” and the “inhibit proliferation of A549b cells” value (A549b cells; single agent, mixed with 0.2 μg/mL LFA2K, compared with control OLIGO 32, FIG. 1) was “over 50%”. The “effect on antiproliferative activity of cisplatin” value [3] was “no effect on the antiproliferative activity of cisplatin”.
